Consider 2 molecules from patent US4199579A, “Carbamates of 2-haloergolines and 2-haloergolenes and process for the preparation thereof” (priority 1975, dated 1980).

Data set [1] has as its system Antidepressant activity. As to the kind of experiment: Antidepressant activity. The data set is classed as in vivo. From the text:
(§1) Coming now to examining the anti-asthmatic pharmaceutical compositions it has been ascertained that the compound described as D-2-bromo-6-methyl-8beta-(morpholinocarbolynoxymethyl)-ergoline, corresponding to the formula (4) is endowed with quite special [drawing 81] which render it particularly recommendable for the therapy of asthma. The compound of the formula (4) has the empirical formula C21 H26 N3 O3 Br and a mol. wt. of 448.38. It gives, with mineral and organic acid of nontoxic and pharmacologically acceptable nature, a number of salt. These are soluble in water as well as in the physiological solutions. Such are for example the maleate C25 H30 N3 O7 Br, m.p. 213° C.-216° C., or the methanesulfonate C22 H30 N3 O6 BrS, m.p. 265° C.-266° C. and can be prepared according to the conventional methods by treating the compound (4) with the equivalent quantities of the acid in an aqueous medium or in appropriate organic solvents and their mixtures such as the alcohols, the ethers, the lower aliphatic ketones and others, taken individually or in appropriate mixtures with each other as will be detailed in the Examples hereinafter. The pharmacological activity of the compound of formula (4) is unfolded in appropriate assays, carried out on the test animals and is especially conspicuous in the following test runs: […]

Data set [2] deals with adrenergic activity. As to the kind of experiment: Adrenergic activity of compound (4) in vitro. The data set is classed as cell-based. The source says:
All of these activities of an accessorial nature which unfold themselves at dosages which are considerably higher than those which cause the antiasthmatic effect, should be regarded as favorable factors in the sense that they improve the pharmacological pattern of the product, so that a possible therapeutic use of the product for patients suffering from asthma, […], can be forecast.

Data set [3] deals with Myorelaxing activity. As to the kind of experiment: Myorelaxing activity. The data set is classed as in vivo.
Source text: as §1

The subject of data set [4] is alpha-adrenergic receptors. Description: Antiadrenalic activity in vivo (b): protection of rats from the lethal effect of adrenaline. The arrangement: species or system rat. The note with it: e.v.; Table 2.
The test system of data set [5] is isolated ileum of guinea pig. Description: AntiBaCl2 activity in vitro (c): antagonism of the spasmogenic action of barium chloride on the isolated ileum. Format: cell-based. The note with it: Cavia porcellus, read-out: AntiBaCl2 (c) vitro EC50. On the procedure: (c) Magnus, Pflugers Arch.Ges.Physiol. 102, 123 (1904)
The substance antagonizes the spasmogenic action of the barium chloride on the isolated ileum of guinea pig at dosages of between 1 and 5 μg/ml. […] On the isolated caudal arteria of rat, the compound II inhibits the vaso-constricting effect as caused by the perfusion with hyperpotassium Ringer's solution.

In data set [6] the test system is asthma. Description: Anti-asthmatic activity (Goose, Immunology, 16, 749, 1969). The data set is classed as in vivo. From the text:
Coming now to examining the anti-asthmatic pharmaceutical compositions it has been ascertained that the compound described as D-2-bromo-6-methyl-8beta-(morpholinocarbolynoxymethyl)-ergoline, corresponding to the formula (4) is endowed with quite special [drawing 81] which render it particularly recommendable for the therapy of asthma. The compound of the formula (4) has the empirical formula C21 H26 N3 O3 Br and a mol. wt. of 448.38. It gives, with mineral and organic acid of nontoxic and pharmacologically acceptable nature, a number of salt. These are soluble in water as well as in the physiological solutions. Such are for example the maleate C25 H30 N3 O7 Br, m.p. 213° C.-216° C., or the methanesulfonate C22 H30 N3 O6 BrS, m.p. 265° C.-266° C. and can be prepared according to the conventional methods by treating the compound (4) with the equivalent quantities of the acid in an aqueous medium or in appropriate organic solvents and their mixtures such as the alcohols, the ethers, the lower aliphatic ketones and others, taken individually or in appropriate mixtures with each other as will be detailed in the Examples hereinafter. The pharmacological activity of the compound of formula (4) is unfolded in appropriate assays, carried out on the test animals and is especially conspicuous in the following test runs:
Goose, Sodium ED100 5 mg/kg intrav.

The subject of data set [7] is alpha-adrenergic receptors. Description: Antiadrenalic (antiadrenergic) activity in vitro (a): antagonism of the spasmogenic effect of adrenaline on the seminal vesicle. The data set is classed as cell-based, guinea pig. From the text: More particularly the novel compounds display a vasodilatory activity on the peripheral circulatory system, an hypotensive activity and a spasmolytic effect on the gastrointestinal smooth muscles or a blocking activity towards the alpha-adrenergic receptors, both in "vitro" and in "vivo".
(a) J. Brugger, Helv. Physiol. Pharmacol. Acta 3, 117 (1945)
The product is antagonizing the spasmogenic effect of the adrenaline on the seminal vesicle of guinea pig at concentrations of between 0.1 and 10 pg/ml, as well as the vaso- constricting effect of the noradrenaline on the isolated and perfused caudal arteria of rat, at dosages of between 1 and 10 μg total. Furthermore it antagonizes the contracturing effect of adrenaline and noradrenaline on the "vas deferens" of guinea pig and rat, at concentrations of 0.1 to 10 ng/ml.

The nature of data set [8]: Acute toxicity in mice. The data set is classed as in vivo, mouse. The note with it: mouse, in vivo, mouse. From the text:
|Toxicity LD50 mice orally

The subject of data set [9] is asthma. The settings on record: pharmacological aspect; cited from earlier work.

≈ marks a conversion by molar mass, not a printed value. Read-outs that look alike come from different tables or passages of the source.

Consider `CN1C[C@H](COC(=O)N2CCOCC2)C[C@@H]2c3cccc4[nH]c(Br)c(c34)C[C@H]21` [Example 16, D-2-bromo-6-methyl-8beta-(morpholinocarbonyloxymethyl)-ergoline], for which the ED100 worked out at 5 mg/kg in data set [1] (po, orally); 100 mg/kg in data set [3] (route not given); 0.25 mg/kg in [6] (po, orally). For the same molecule, the “antidepressant activity in words” value in [1] (versus imipramine) is “considerable antidepressant activity which can be compared to that of imipramine”. Also, the “adrenergic activity in vitro” value in data set [2] was “powerful adrenergic activity”. Besides, the “myorelaxing activity in words” value in [3] (versus phenobarbital) was “remarkable myorelaxing activity which is comparable to that of phenobarbital”. Also, the “Antiadrenalic activity (b) vivo ED50” value in data set [4] stood at 0.0419 mg/kg. Also, the EC50 in data set [5] is 7.5 µg/mL (≈ 16.7 µM). Moreover, the “dosage level of anti-asthmatic action compared with sodium chromoglycate” value in [6] (by the oral route) is on record as “considerably lower dosage levels”. Also, the “activity against asthmatic seizures in words” value in data set [6] (in vivo) was “both selectivity and a powerful activity against asthmatic seizures”. In data set [7], the “Antiadrenalic activity (a) vitro EC50” value stood at 0.0058 µg/mL. The LD50 in data set [8] (iv, e.v., Table 2, read-out: DL50 e.v. in the mouse) was 20.5 mg/kg; in data set [8] (iv, mice, intrav., compound (4), read-out: Toxicity LD50 mice intrav.), 18 to 22 mg/kg; in data set [8] (po, mice, orally, compound (4), read-out: Toxicity LD50 mice orally) it was 180 mg/kg. Besides, the selectivity ratio in data set [8] (margin of safety, read-out: multiple of the therapeutic dosage beyond which toxic effects become apparent) is above 1000.
`O=C(O)c1cc(=O)c2c(OCC(O)COc3cccc4oc(C(=O)O)cc(=O)c34)cccc2o1` [Sodium chromoglycate, reference compound]: the “route by which the anti-asthmatic activity is manifested” value in [9] is “manifested only by the parentheral administration (intravenously), and, in man by inhalation of the dispersed powder”. In [6] (iv, intrav.), this molecule yielded an ED100 of 5 mg/kg.
